Measured values published in patent EP1311531B1, “STEROID DERIVED ANTIBIOTICS” (Brigham Young University, priority 2000, dated 2002).
≈ marks a conversion by molar mass, not a printed value. Read-outs that look alike come from different tables or passages of the source.

Legend:
E. coli (ATCC 10798) [1] = assay: MIC and MBC measurement; format: cell-based, Escherichia coli
In short: (§1)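 Bacteria kept on Mueller-Hinton agar; compounds (HCl salts) dissolved in sterile deionized water and microfiltered. Suspension mixed 1:1 with TSB containing graded concentrations of cholic acid derivatives and/or erythromycin or novobiocin; turbidity read for MIC. Non-turbid samples subcultured on TSA, CFU/mL compared with inoculum for MBC.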

E. coli (ATCC 10798) [2] = assay: Sensitization to erythromycin or novobiocin (outer membrane permeabilization, FIC); format: cell-based, Escherichia coli; conditions: for (a) Concentration required to lower the MIC of erythromycin from 70 to 1 µg/mL / (b) MBC with 1 µg/mL erythromycin / (d) Concentration required to lower the MIC of novobiocin from >500 to 1 µg/mL / FIC^c (FIC values with erythromycin) / FIC^c (FIC values with novobiocin): Table 9, Escherichia coli (ATCC 10798)
In short: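 E. coli in TSB received cholic acid derivatives, then erythromycin or novobiocin 15 minutes later, in checkerboard titration, stationary at 37°C for 24 hours. Turbidity was read at 760 nm; clear samples were subcultured on TSA for CFU/mL versus inoculum. FIC = sum of MIC-in-combination/MIC-alone ratios for compound and antibiotic.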

[3] = tested on: Candida albicans ATCC 90028; assay: MIC and MBC measurement; format: cell-based; conditions: ATCC90028, Table 10
In short: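 Tube broth dilution in TSB with stepped concentrations of cholic acid derivatives, alone or with erythromycin or novobiocin. MIC = no measurable turbidity; MBC from overnight TSA subcultures of clear tubes, colony counts converted to CFU/mL versus original inoculum.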

[4] = tested on: Klebsiella pneumonia ATCC 13883; assay: MIC and MBC measurement; format: cell-based; conditions: Klebsiella pneumoniae, ATCC13883
In short: as §1

[5] = tested on: Pseudomonas aeruginosa ATCC 27853; assay: MIC and MBC measurement; format: cell-based
In short: as §1

[6] = tested on: Salmonella typhimurium ATCC 14028; assay: MIC and MBC measurement; format: cell-based; conditions: Salmonella enterica
In short: as §1

[7] = tested on: Streptococcus pyogenes ATCC 19615; assay: MIC and MBC measurement; format: cell-based; conditions: ATCC19615, Table 10
In short: as §1

[8] = tested on: Pseudomonas aeruginosa ATCC 27853; assay: Sensitization to erythromycin, novobiocin or rifampicin (permeabilization, FIC); format: cell-based
[9] = tested on: Salmonella typhimurium ATCC 14028; assay: as above; format: cell-based
[10] = tested on: Klebsiella pneumonia ATCC 13883; assay: as above; format: cell-based, Klebsiella pneumoniae
[11] = tested on: Escherichia coli ATCC 25922; conditions: ATCC25922
Experimental: (§2) FICs can be performed by checkerboard titrations of compounds in one dimension of a microtiter plate, and of antibiotics in the other dimension, for example. The FIC is calculated by looking at the impact of one antibiotic on the MIC of the other and vice versa. […] As used herein, FIC can be determined as follows: FIC = (MIC(compound in combination))/(MIC(compound alone)) + (MIC(antibiotic in combination))/(MIC(antibiotic alone)) [formula]
(§3) Aliquots of 1 mL of the suspension were added to test tubes containing 1 mL TSB and incrementally varied concentrations of cholic acid derivatives and/or erythromycin or novobiocin. […] Additionally, an alliquot from each of the samples showing no measurable turbidity was subcultured on TSA plates (alliquots were diluted to provide fewer than 300 CFU). Colonies that grew on the subculture after overnight incubation were counted and the number of CFU/mL in the samples were calculated. The calculated values were compared to the number of CFU/mL in the original inoculum.
(§4) Concentrations of 0.5, 1.0 or 3.0 µg/mL of these antibiotics were used, and the concentrations of the cholic acid derivatives required to inhibit bacterial growth of Gram-negative strains were determined.

[12] = tested on: Escherichia coli ATCC 25922; assay: Sensitization to erythromycin, novobiocin or rifampicin (permeabilization, FIC); conditions: Table 13; with rifampicin (order of b151); Escherichia coli ATCC 25922
Experimental: as §2, §3, §4

[13] = Table 9, Escherichia coli (ATCC 10798)
[14] = ATCC27853, Table 10, Pseudomonas aeruginosa ATCC 27853
[15] = Table 12, with novobiocin (order of b151), Pseudomonas aeruginosa ATCC 27853
[16] = Table 13, with rifampicin (order of b151), Pseudomonas aeruginosa ATCC 27853^b (footnote b not given)
[17] = Table 11, with erythromycin (order of b151)
[18] = Table 12, with novobiocin (order of b151)
[19] = Table 12, with novobiocin (order of b151), Klebsiella pneumonia ATCC 13883
[20] = Table 13, with rifampicin (order of b151), Klebsiella pneumonia ATCC 13883
[21] = ATCC10798, Table 9, Escherichia coli (ATCC 10798), read-out: MBC
[22] = ATCC10798, Table 9, Escherichia coli (ATCC 10798), read-out: MIC

SMILES	(a) Concentration required to lower the MIC of erythromycin from 70 to 1 µg/mL (E. coli (ATCC 10798) [2])	(b) MBC with 1 µg/mL erythromycin (E. coli (ATCC 10798) [2])	(d) Concentration required to lower the MIC of novobiocin from >500 to 1 µg/mL (E. coli (ATCC 10798) [2])	FIC^c (FIC values with erythromycin) (E. coli (ATCC 10798) [2])	FIC^c (FIC values with novobiocin) (E. coli (ATCC 10798) [2])	MBC [3]	MIC [3]	MBC [4]	MIC [4]	MBC [5, 14]	MIC [5, 14]	MBC [6]	MIC [6]	MBC [7]	MIC [7]	FIC ([8]; ATCC27853)	concentration required for bacterial growth inhibition ([8]; ATCC27853)	concentration required for bacterial growth inhibition [8, 15]	FIC [8, 16]	FIC [9, 17]	also measured
C[C@H](CCCO)[C@H]1CC[C@H]2[C@@H]3[C@H](OCCCN)C[C@@H]4C[C@H](OCCCN)CC[C@]4(C)[C@H]3C[C@H](OCCCN)[C@]12C [Compound 10]	2.0 µg/mL	50 µg/mL	4.0 µg/mL	0.070	0.11	29 µg/mL (≈ 51.2 µM)	14 µg/mL (≈ 24.7 µM)	50 µg/mL (≈ 88.4 µM)	47 µg/mL (≈ 83.1 µM)	36 µg/mL (≈ 63.6 µM)	21 µg/mL (≈ 37.1 µM)	> 17 µg/mL	43 µg/mL (≈ 76 µM)	5.8 µg/mL (≈ 10.2 µM)	4.2 µg/mL (≈ 7.42 µM)	0.13	2.1 µg/mL	5.3 µg/mL	0.083	0.037	MBC (E. coli (ATCC 10798) [1]; Escherichia coli, ATCC10798, Table 1, E. coli (ATCC 10798), read-out: MBC): 60 µg/mL (≈ 106 µM); MIC (E. coli (ATCC 10798) [1]; Escherichia coli, ATCC10798, Table 1, E. coli (ATCC 10798), read-out: MIC): 36 µg/mL (≈ 63.6 µM); MBC (E. coli (ATCC 10798) [1]; [13]): 60 µg/mL (≈ 106 µM); MIC (E. coli (ATCC 10798) [1]; [13]): 36 µg/mL (≈ 63.6 µM); MBC (E. coli (ATCC 10798) [2]; Escherichia coli, ATCC10798, Table 2, E. coli (ATCC 10798), with erythromycin): 50 µg/mL; concentration required to lower the MIC of erythromycin from 70 µg/mL to 1 µg/mL (E. coli (ATCC 10798) [2]; Table 2, E. coli (ATCC 10798), with erythromycin): 2 µg/mL; MIC ([5]; ATCC27853, Table 6, P. aureginosa (ATCC 27853)): 23 µg/mL (≈ 40.6 µM); concentration required to lower the MIC of erythromycin from 240 µg/mL to 5 µg/mL ([8]; Table 7, P. aureginosa (ATCC 27853), with erythromycin): 7 µg/mL; concentration required for bacterial growth inhibition [9, 17]: 0.87 µg/mL; FIC [9, 18]: 0.052; concentration required for bacterial growth inhibition [9, 18]: 1.8 µg/mL; FIC ([10]; ATCC13883): 0.035; concentration required for bacterial growth inhibition ([10]; ATCC13883): 0.21 µg/mL; concentration required for bacterial growth inhibition [10, 19]: 0.73 µg/mL; FIC [10, 20]: 0.030; concentration required for bacterial growth inhibition [10, 20]: 0.16 µg/mL; concentration required for bacterial growth inhibition [11]: 0.30 µg/mL; FIC [12]: 0.085; concentration required for bacterial growth inhibition [12]: 0.70 µg/mL
C[C@]12CC[C@@H](OCCCN)C[C@H]1C[C@@H](OCCCN)[C@@H]1[C@@H]2C[C@H](OCCCN)[C@]2(C)[C@@H](O)CC[C@@H]12 [Compound 106]	30 µg/mL	160 µg/mL	50 µg/mL	0.23	0.36	92 µg/mL (≈ 186 µM)	75 µg/mL (≈ 151 µM)	100 µg/mL (≈ 202 µM)	> 100 µg/mL	97 µg/mL (≈ 196 µM)	85 µg/mL (≈ 171 µM)	> 100 µg/mL	> 100 µg/mL	37 µg/mL (≈ 74.6 µM)	18 µg/mL (≈ 36.3 µM)	0.22	16 µg/mL	30 µg/mL	0.17	0.088	MBC (E. coli (ATCC 10798) [1]; [21]): > 200 µg/mL; MIC (E. coli (ATCC 10798) [1]; [22]): 140 µg/mL (≈ 282 µM); concentration required for bacterial growth inhibition [9, 17]: 7.1 µg/mL; FIC [9, 18]: 0.094; concentration required for bacterial growth inhibition [9, 18]: 8.4 µg/mL; FIC ([10]; ATCC13883): 0.66; concentration required for bacterial growth inhibition ([10]; ATCC13883): 3.6 µg/mL; concentration required for bacterial growth inhibition [10, 19]: 8.9 µg/mL; FIC [10, 20]: 0.044; concentration required for bacterial growth inhibition [10, 20]: 1.8 µg/mL; concentration required for bacterial growth inhibition [11]: 4.7 µg/mL; FIC [12]: 0.12; concentration required for bacterial growth inhibition [12]: 4.2 µg/mL
CCCOCCC[C@@H](C)[C@H]1CC[C@H]2[C@@H]3[C@H](OCCCN)C[C@@H]4C[C@H](OCCCN)CC[C@]4(C)[C@H]3C[C@H](OCCCN)[C@]12C [Compound 112]	0.4 µg/mL	4.0 µg/mL	0.8 µg/mL	0.048	0.085	45 µg/mL (≈ 74 µM)	41 µg/mL (≈ 67.4 µM)	27 µg/mL (≈ 44.4 µM)	23 µg/mL (≈ 37.8 µM)	6.4 µg/mL (≈ 10.5 µM)	4.6 µg/mL (≈ 7.57 µM)	90 µg/mL (≈ 148 µM)	86 µg/mL (≈ 141 µM)	3 µg/mL (≈ 4.93 µM)	2.4 µg/mL (≈ 3.95 µM)	0.59	1.0 µg/mL	0.72 µg/mL	0.15	0.019	MBC (E. coli (ATCC 10798) [1]; [21]): 17 µg/mL (≈ 28 µM); MIC (E. coli (ATCC 10798) [1]; [22]): 12 µg/mL (≈ 19.7 µM); concentration required for bacterial growth inhibition [9, 17]: 0.20 µg/mL; FIC [9, 18]: 0.015; concentration required for bacterial growth inhibition [9, 18]: 0.39 µg/mL; FIC ([10]; ATCC13883): 0.035; concentration required for bacterial growth inhibition ([10]; ATCC13883): 0.1 µg/mL; concentration required for bacterial growth inhibition [10, 19]: 0.19 µg/mL; FIC [10, 20]: 0.031; concentration required for bacterial growth inhibition [10, 20]: 0.11 µg/mL; concentration required for bacterial growth inhibition [11]: 0.40 µg/mL; FIC [12]: 0.19; concentration required for bacterial growth inhibition [12]: 0.81 µg/mL
